Results on three compounds are retold here after patent US9815833B2, “Pyridine derivative and medical use thereof” (Chengdu Easton Biopharmaceuticals Co., Ltd., priority 2013, dated 2017).

The target in data set [1] is human FXa (Homo sapiens, UniProt P00742). Put plainly: Human FXa inhibition assay (fluorogenic substrate). The format is biochemical. The note with it: human FXa 1 nM, substrate 106.7 μM, 30 minutes at room temperature, pH 8.0. As to the method:
Inhibitory effects of the compounds of the present invention on human FXa were studied, to measure IC50 values thereof on human FXa.
human FXa enzyme (Sekisui Diagnostics, REF 526);
Fluorogenic substrate for the FXa assay (American diagnostic, Product No. 222F);
Buffer: 20 mM Tris-HCl, 200 mM NaCl, 2.5 mM CaCl2, pH 8.0.
(2) 10 mM of each compound was 5-fold diluted serially with buffer to different concentrations (from 40 μM to 0.00002048 μM);
(3) 6 μL of the above diluted solutions of Step (2) were added into each well of 384-well plate to make a final volume of 60 μL, and the final concentration of the compound ranged from 4 μM to […];
(4) 30 μL of human FXa enzyme (2 nM) was added into each well, with a final concentration of 1 nM;
(5) 24 μL human FXa fluorescent enzyme substrate (266.7 μM) was added into each well, with a final concentration of 106.7 μM;
(6) the plate was gently shaked for 5 minutes and then incubated for 30 minutes at room temperature, with avoidance from light;
(7) fluorescence signal was read at 360/440 nm, the inhibition percentage was measured, and 4 Parameter Logistic Model in Xlfit software was employed to calculate IC50.

A short description of data set [2]: Pharmacokinetic studies on healthy rats. The settings on record: male, rat, po, SD rats, 10 mg/kg i.g., plasma; for AUC(0-t): read-out: AUC0-24. The format is in vivo. An excerpt:
SD rats were used as test animals, and LC/MS/MS method was applied for measuring the drug concentrations of rats at different time after administrating the compounds of the present invention by gavage, respectively. Pharmacokinetic behaviors of the compounds of the present invention on rats were studied, so as to evaluate the pharmacokinetic characteristics thereof.
SD rats, weighing 180-220 g, male, 40 rats, 5 rats in each group, provided by Chengdu Dashuo Biological Technology Co., Ltd.; Production facility license: SCXK (Chuan) 2008-24. Animals were housed in the animal room after purchased, adaptively observed for at least three days, and used for assays unless they were qualified for the quarantine standard.
3.1 Grouping: the rats were randomly grouped according to Table 3, with no significant difference among the groups;
Rats in each group was administrated by gavage with the corresponding investigational drugs according to Table 3, at 5 min, 10 min, 20 min, 30 min, 1 h, 2 h, 4 h, 6 h, 8 h, 10 h, 12 h, 24 h after administration, 0.5 ml of blood was taken into the vacuum blood-collection tubes containing heparin sodium, and centrifuged at 5,000 rpm to obtain plasma which was stored at −20° C.
50 μL plasma at each time after administration was taken, then 150 μL of acetonitrile was added, which was subjected to vortex at 1500 rpm for 2 minutes. Solution was centrifuged for 15 minutes (3500 r/min), after that 10 μL supernatant was analyzed by HPLC/MS/MS.
The pharmacokinetic behaviors of the investigational compounds were subjected to compartmental model fitting, and DAS 2.0 software was used to calculate the main pharmacokinetic parameters.

In data set [3] the test system is APTT of healthy mice. Put plainly: Effects on APTT of healthy mice. The settings on record: 5 mg/kg i.g.; for APTT (sec): KM mice, blood collected 1 hour after administration, x ± SD, 10 mice per group; for anticoagulant effect (APTT) compared with positive drug Apixaban: mice, 1 h after administration, same dose. Format: in vivo, KM mice. An excerpt: Test for four coagulation parameters (including prothrombin time (PT), activated partial thromboplastin time (APTT), thrombin time (TT) and fibrinogen (FIB)) belongs to one of clinical inspection items, and is necessary to thrombotic disease inspections or before the surgery. APTT mainly reflects whether the intrinsic coagulation system status is normal or not. Accordingly, the APTT value is used as a detection indicator in this test of the present invention. The anticoagulant effects of the compounds prepared in the Examples of the present invention were evaluated through the effects thereof on APTT of mice.
KM mice, weighing 28-30 g, male, 170 mice, provided by Chengdu Dashuo Biological Technology Co., Ltd.; Production facility license: SCXK (Chuan) 2008-24. Animals were housed in the animal room after purchased, adaptively observed for at least three days, and used for assays unless they were qualified for the quarantine standard.
(1) Grouping: mice were grouped and tested according to Table 1, wherein there were 10 mice in each group.
Mice in each group were administrated with the corresponding investigational drugs (mice in control group were administrated with the normal saline). At 1 hour after administration, blood was collected into 0.5 ml vacuum blood-collection tube containing sodium citrate from mice orbit. APTT values of animals were measured after collecting the blood samples.
Excel was used for statistics, experimental data were expressed as (x±SD), and two-sided T-test method was used to statistically compare the experimental data among multiple groups.

Chain of human FXa (P00742 235-488 limits assumed): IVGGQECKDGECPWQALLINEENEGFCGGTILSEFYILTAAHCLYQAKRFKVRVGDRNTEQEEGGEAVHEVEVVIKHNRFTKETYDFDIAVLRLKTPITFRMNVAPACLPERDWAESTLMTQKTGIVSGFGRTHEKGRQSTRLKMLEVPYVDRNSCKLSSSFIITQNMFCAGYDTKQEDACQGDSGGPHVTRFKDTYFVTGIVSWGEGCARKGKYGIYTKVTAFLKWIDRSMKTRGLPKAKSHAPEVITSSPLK
Chain of human FXa (P00742 41-179 partner limits assumed): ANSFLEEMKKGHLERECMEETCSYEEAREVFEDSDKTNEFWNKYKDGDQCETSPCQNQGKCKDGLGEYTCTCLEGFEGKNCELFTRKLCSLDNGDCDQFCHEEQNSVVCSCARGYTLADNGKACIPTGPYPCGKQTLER

Usually IC50 stands for the midpoint of a concentration-inhibition curve. As a reminder, the Cmax is the maximum level reached in the sampled fluid or tissue. Usually Tmax stands for the time at which the peak concentration occurs. Broadly, the half-life is the time in which the quantity being followed falls by half. Lower therefore signals fast loss. As to `COc1ccc(-n2nc(C(N)=O)c3c2C(=O)N(c2ccc(N4CCCC4=O)cc2C)CC3)cc1F` [Example 15, 1-(3-fluoro-4-methoxyphenyl)-7-oxo-6-[2-methyl-4-(2-oxo-pyrrolidin-1-yl)phenyl]-4,5,6,7-tetrahydro-1H-pyrazolo[3,4-c]pyridine-3-carboxamide], the IC50 in data set [1] was determined as 0.124 nM. Moreover, in data set [2], the highest level (Cmax) was 8750 ng/mL, the Tmax was found to be 0.25 h, the half-life is 6.5 h and the AUC(0-t) worked out at 32400 ng·h/mL. Moreover, in data set [3], the “APTT (sec)” value is 27.97 ± 2.32 * * ^ΔΔ sec and the “anticoagulant effect (APTT) compared with positive drug Apixaban” value is on record as “significantly better than positive drug Apixaban”.
`COc1ccc(-n2nc(C(N)=O)c3c2C(=O)N(c2ccc(N4CCCC4=O)cc2C)CC3)cc1` [Example 9, 1-(4-methoxyphenyl)-7-oxo-6-[2-methyl-4-(2-oxo-pyrrolidin-1-yl)phenyl]-4,5,6,7-tetrahydro-1H-pyrazolo[3,4-c]pyridine-3-carboxamide] returned an IC50 in data set [1] of 0.078 nM. Moreover, in data set [2], the Cmax was 9360 ng/mL, the time of peak concentration (Tmax) amounted to 0.2 h, the half-life is 6.4 h and the AUC(0-t) was determined as 36400 ng·h/mL. In data set [3], the “APTT (sec)” value is 31.29 ± 2.80 * * ^ΔΔ sec and the “anticoagulant effect (APTT) compared with positive drug Apixaban” value was “significantly better than positive drug Apixaban”.
The compound `COc1ccc(-n2nc(C(N)=O)c3c2C(=O)N(c2ccc(N4CCCC4=O)c(C)c2)CC3)cc1F` [Example 18, 1-(3-fluoro-4-methoxyphenyl)-7-oxo-6-[3-methyl-4-(2-oxo-pyrrolidin-1-yl)phenyl]-4,5,6,7-tetrahydro-1H-pyrazolo[3,4-c]pyridine-3-carboxamide] yielded an IC50 in data set [1] of 0.091 nM. In data set [2], the highest level (Cmax) was 8970 ng/mL, the Tmax was 0.25 h, the half-life is 6.8 h and the AUC(0-t) came out at 35500 ng·h/mL. In addition, in data set [3], the “APTT (sec)” value was 28.96 ± 2.42 * * ^ΔΔ sec and the “anticoagulant effect (APTT) compared with positive drug Apixaban” value was “significantly better than positive drug Apixaban”.
